Test results: patent US20250325491A1, “POLYVALENT MOLECULE BASED LIPID NANOPARTICLES FOR NUCLEIC ACID DELIVERY” (Bio-TRIP B.V., priority 2022, published 2025)

Columns and labels:
[1] = siRNA retention by Quant-iT RiboGreen assay; assay type: physicochemical; details: A2 siRNA-aNPs with variations in N/P, tri-caprylin content, cholesterol content and type of phospholipid (FIG. 13); in most cases
Protocol: (§1) The Quant-iT RiboGreen assay (Thermo Fisher) was used to quantify the amount of siRNA loaded inside the formulated particles. The assay was performed using a black 96-well plate. The formulation sample with a theoretical siRNA concentration of 133.3 μg/mL, was diluted 200 times in TE buffer (10 mM Tris-HCl, 1 mM, EDTA, pH 7.5 in DEPC-treated water) and with a TE buffer containing 2% Triton™ X-100, in a black 96-well plate to a total volume of 100 μl. The Triton detergent will disrupt the lipid-based nanoparticles; therefore, all siRNA (retained plus unretained) becomes accessible for the Quant-iT RiboGreen reagent. Controls of siRNA of known concentration (28.6 μg/mL) were diluted 53.3 times in both TE buffer and TE buffer containing 2% Triton in a 96-well plate to a total volume of 100 μl. Next, RiboGreen reagent was diluted 200 times with TE buffer and with TE buffer containing Triton. 100 μl of this dilution was added to each well containing sample or control to bring the total volume in the plate to 200 μl. Subsequently, the samples' fluorescence was measured on a Tecan Spark® microplate reader at an excitation wavelength of 480 nm and emission wavelength of 520 nm.
The recovery of siRNA was determined as:
The siRNA retention=recovery×entrapment.

[2] = mRNA recovery, entrapment and retention by Ribogreen assay; assay type: physicochemical; details: mRNA-aNPs containing the polyvalent material; for Retention of mRNA: retention = recovery x entrapment
Protocol: as §1
This was done in a similar way as described for determining the siRNA encapsulation efficiency.

[3] = Cryo-TEM of nanoparticles; assay type: physicochemical; details: siRNA-aNPs containing the polyvalent material
Protocol: Size and shape of the nanoparticles was also assessed by cryo-transmission electron microscopy (cryo-TEM). The surface of 200-mesh lacey carbon supported copper grids (Electron Microscopy Sciences) was plasma charged for 40 seconds using a carbon coater (Cressington 208). Subsequently, 3 μl of nanoparticle sample (˜1 mg protein/ml) was pipetted on a grid and vitrified into a thin film by plunge vitrification in liquid ethane. This step was performed by using an automated robot (FEI Vitrobot Mark IV). Cryo-TEM imaging was acquired on the cryo-transmission electron microscope TITAN (Thermo Fisher), equipped with a field emission gun (FEG), a post-column Gatan imaging filter (model 2002) and a post-GIF 2 k×2 k Gatan CCD camera (model 794). The imaging was performed at 300 kV acceleration voltage in bright-field TEM mode with zero-loss energy filtering at 24,000× magnification (dose rate of 11.8 e−/Å2·s), and 1s acquisition time. Pictures and results are reported in Table S6, FIG. 7, FIG. 8, FIG. 9 (A), FIG. 15.

RAW 264.7 cell line = assay: MTS cytotoxicity assay; assay type: cell-based; details: RAW 264.7 cell line exposed to siRNA-aNPs with increasing amounts of the polyvalent molecule (FIG. 10)
Protocol: MTS assays were carried out on multiple apolipoprotein nanoparticles (aNPs) of the invention. These assays were executed in line with protocols that are known in the art.

[4] = system: RAW264.7 macrophage cells; assay: In vitro Firefly luciferase expression (mRNA transfection); assay type: cell-based; details: 100 ng mRNA per well, 24 hours after transfection (FIG. 14)
Protocol: For the detection of Firefly luciferase expression in vitro, the ONE-Glo™ Luciferase Assay System (Promega) was used. RAW264.7 cells were seeded at a density of 35 k cells per well in a 96-well plate in 100 μL. After approximately 6 hours the RAW264.7 cells were transfected with 10 μL Firefly luciferase mRNA (RIBOPRO) using aNPs or LNPs at a dose of 100 ng mRNA per well. 24 hours after transfection, cell viability was determined by a CellTiter 96® AQueous One Solution Cell Proliferation assay (MTS) (Promega) assay. 10 μL reagent was added to the cells, and absorbance was measured at 495 nm after an hour of incubation (37° C., 5% CO2). Subsequently, the cells were washed three times with 1×PBS, and then 40 μL ONE-Glo™ Luciferase Assay Reagent was added to each well. After complete lysis of the cells, the cell lysates were transferred to a white flat bottom 96-well plate. Luminescence was measured using a Tecan Spark plate reader. Luciferase expression was expressed as luciferase intensity after normalization to the cell viability and subtracting background signal.

C57BL/6 mice = assay: In vivo Firefly luciferase expression; details: 0.5 mg/kg Firefly luciferase mRNA in aNP, bolus injection, 16 hours, two animals (FIG. 16)
Protocol: After 16 hours, the animals were sacrificed and the liver, spleen and femur collected. Organs were processed to yield single cell suspensions. 1/10th of the liver was cut into small pieces, incubated for 15 min, 37° C., 50 RPM with 5 mL liberase solution. Next, the digested liver was put through a 70 μm strainer and collected in a 50 mL falcon tube. After washing with 1×PBS, the cells was resuspended in 15 mL 1×PBS. 1/10th of the spleen was cut into small pieces and put through a 70 μm strainer and collected in a 50 mL falcon tube. After washing with 1×PBS, 1 mL of lysis buffer (BD Pharm Lyse™, cat #555899, diluted 10 times in diH2O) was added and incubated for 4 minute at room temperature. The cells were washed with 1×PBS and resuspended in 15 mL 1×PBS. Both ends of the femur were broken. The bone marrow cells were flushed from the inside of the bone with 10 mL 1×PBS through a 70 μm strainer and collected in a 50 mL falcon tube. The cells were centrifugated and 1 mL lysis buffer (BD Pharm Lyse™, cat #555899, diluted 10 times in diH2O) was added to the pellet and incubated for 1 minute at room temperature. […] All cell suspensions were counted and 500000 cells were seeded in a V-bottom plate. […] 40 μL was transferred to a white 96-well plate and luminescence was measured using the following settings: Settle time: 1000 ms; Integration time: 500 ms; Open filter.

[5] = system: Firefly luciferase in RAW264.7 cell line transfected with the pmirGLO plasmid; assay: In vitro silencing (dose-response curve); details: RAW 264.7 cell line; siRNA-aNPs containing the polyvalent molecule vs DLin-MC3-DMA or ALC-0315 particles (FIG. 11)
Protocol: The in vitro silencing experiments were performed in a RAW264.7 cell line transfected with the pmirGLO plasmid (containing Renilla luciferase and Firefly luciferase expressing gene sequences). The cells were cultured until 80% confluency in a T75 cell culture flask. The cells were detached, counted, and seeded at 10000 cells/well in a 96-well plate. After overnight resting, the cells were transfected with nanoparticles containing anti Firefly luciferase siRNA at a range of concentrations. After 48-hour incubation, the old medium was washed off with 1×PBS. Lysate phosphate buffer (Dual-Luciferase® Reporter Assay System, Promega) was added to lyse the cells. […] Subsequently, 40 μl of ONE-Glo™ reagent (Dual-Luciferase® Reporter Assay System, Promega) was added and luminescence was measured with a Tecan Spark® microplate reader at an integration time of 500 ms, and settle time of 1000 ms. Since the luminescence peak should be in the range of 550-570 nm, a luminescence scan was performed to confirm the wavelength. Next, 40 μl of Stop and Glo reagent (Dual-Luciferase® Reporter Assay System, Promega) was added to each well and the luminescence was measured again in the same way. The relative remaining Firefly luciferase luminescence was calculated. First, the Firefly luminescence was normalized with the Renilla luminescence. […]

[6] = formulation for in vitro experiment (Table S8)
[7] = formulation for in vivo experiment (Table S8)

## CCCCCCCCOC(=O)CCN(CCCN(CCCCN(CCCN(CCC(=O)OCCCCCCCC)CCC(=O)OCCCCCCCC)CCCN(CCC(=O)OCCCCCCCC)CCC(=O)OCCCCCCCC)CCCN(CCC(=O)OCCCCCCCC)CCC(=O)OCCCCCCCC)CCC(=O)OCCCCCCCC [Example A2, G1-ACR-nC8-8]
[1]
  siRNA retention (Ribogreen assay): high siRNA retention
[2]; [6]
  Entrapment of mRNA: 87%
  Recovery of mRNA: 27%
  Retention of mRNA: 23%
[2]; [7]
  Entrapment of mRNA: 88%
  Recovery of mRNA: 57%
  Retention of mRNA: 50%
[3]; SD over n individual particles
  Cryo-TEM Diameter: 55 ± 11 nm
[3]; n individual particles
  Cryo-TEM PDI: 0.04
RAW 264.7 cell line
  cytotoxicity (MTS assay): do not exercise cytotoxicity
[4]
  Luminescence intensity after Firefly luciferase mRNA transfection, compared with ALC-0315 LNP and aNP controls: outperform the reference LNP and aNP particles
C57BL/6 mice
  Luminescence intensity of single cell suspensions from liver, spleen and bone marrow (tissue targeting): target spleen and bone marrow tissue efficiently
[5]
  silencing potency compared with reference aNPs or LNPs (dose response curve): higher potency than the reference aNPs or LNPs
